# Data: ChEMBL document CHEMBL3046933, “Synthesis and evaluation of a series of aminocyanopyridines as antimicrobial agents” (2011)
# Key:
# Type in all cases: functional
# [1] = system: Micrococcus luteus; test: Antibacterial activity against Micrococcus luteus NRRLB 4375 by macrobroth dilution method
# [2] = system: Pseudomonas aeruginosa; test: Antibacterial activity against Pseudomonas aeruginosa […] by macrobroth dilution method
# [3] = system: Micrococcus luteus; test: Antibacterial activity against Micrococcus luteus NRRLB 4375 at 100 ug/ml after 24 hr by disk diffusion method; details: NRRLB 4375, 24 h, read-out: DIZ
# [4] = system: Pseudomonas aeruginosa; test: Antibacterial activity against Pseudomonas aeruginosa […] at 100 ug/ml after 24 hr by disk diffusion method; details: read-out: DIZ
# [5] = system: Bacillus subtilis; test: Antibacterial activity against Bacillus subtilis RSKK 244 at 100 ug/ml after 24 hr by disk diffusion method; details: RSKK 244, 24 h, read-out: DIZ
# [6] = system: Bacillus subtilis; test: Antibacterial activity against Bacillus subtilis RSKK 244 by macrobroth dilution method
# [7] = system: Priestia megaterium; test: Antibacterial activity against Bacillus megaterium clinical isolate at 100 ug/ml after 24 hr by disk diffusion method; details: read-out: DIZ
# [8] = system: Candida albicans; test: Antifungal activity against Candida albicans ATCC 90028 at 100 ug/ml by disk diffusion method; details: read-out: DIZ
SMILES,MIC [1] [µg/mL],MIC [2] [µg/mL],zone of inhibition at 100 µg/mL [3] [mm],zone of inhibition at 100 µg/mL [4] [mm],zone of inhibition at 100 µg/mL [5] [mm],MIC [6] [µg/mL],zone of inhibition at 100 µg/mL [7] [mm],zone of inhibition at 100 µg/mL [8] [mm]
Cc1ccc(-c2c(C#N)c(N)nc3c2CCCC3)s1,25,12.5,12,20,,,,
Cc1ccc(-c2c(C#N)c(N)nc3c2CCCCC3)o1,25,25,9,14,,,,
Cc1ccc(-c2c(C#N)c(N)nc3c2CCCC3)o1,37.5,,11,,,,,
Cc1ccsc1-c1c(C#N)c(N)nc2c1CCC2,37.5,,11,,13,37.5,,
Cc1ccsc1-c1c(C#N)c(N)nc2c1CCCC2,37.5,25,9,9,,,,
Cc1ccsc1-c1c(C#N)c(N)nc2c1CCCCC2,,12.5,,17,10,37.5,,
Cc1ccc(-c2c(C#N)c(N)nc3c2CCC3)s1,37.5,25,12,15,15,25,,
Cc1ccc(-c2c(C#N)c(N)nc3c2CCCCC3)s1,25,25,20,19,10,37.5,,
Cc1ccc(-c2c(C#N)c(N)nc3c2CCC3)o1,25,12.5,15,17,22.5,12.5,,
CC1(C)S[C@@H]2[C@H](NC(=O)[C@H](N)c3ccccc3)C(=O)N2[C@H]1C(=O)O [AMPICILLIN],8,,31,,15,,10,
OC(Cn1cncn1)(Cn1cncn1)c1ccc(F)cc1F [FLUCONAZOLE],8,,,,,,,
CC(=O)N1CCN(c2ccc(OCC3COC(Cn4ccnc4)(c4ccc(Cl)cc4Cl)O3)cc2)CC1 (stereo not drawn) [KETOCONAZOLE],,,,,,,,16
CC1(C)S[C@@H]2[C@H](NC(=O)Cc3ccccc3)C(=O)N2[C@H]1C(=O)O [PENICILLIN G],,,9,,,,,
CN(C)[C@@H]1C(O)=C(C(N)=O)C(=O)[C@@]2(O)C(O)=C3C(=O)c4c(O)cccc4[C@@](C)(O)[C@H]3C[C@@H]12 [TETRACYCLINE],,,28,,,,,
